Consider 21 compounds from ChEMBL document CHEMBL1201862, “PubChem BioAssay data set” (2004).

Series [1] is described as follows: viability of PTEN-deleted HCT116 cells – cell-based, HCT116 PTEN knockout, dose response (AID 1047).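 Note: HCT116 colon tumor cells with PTEN knocked out; cells exposed to compound for 60 hours before readout; potency for loss of cell viability measured by luminescence.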 The series is classed as functional.
Series [2] in a line: viability of HCT116 lacking mutant beta-catenin – cell-based, human colon tumor, dose response (AID 1045).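 Note: HCT116 colon tumor cells with beta catenin knocked out; cells exposed to compound for 60 hours.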 It counts as functional.
Series [3] is described as follows: NIH-3T3 fibroblast cytotoxicity, dose response, cytotoxicity control, cell-based, fluorescence, Alamar Blue, secondary assay (AID 2327).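 Note: NIH-3T3 mouse fibroblasts cultured with fluconazole at 8 µg/mL.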 The series is classed as functional. In general terms: The colour change of resazurin is a common sign of viable cells or microbes.
The nature of series [4]: fluconazole-exposed Candida albicans growth modulators – fluorescence, retest, confirmation (AID 2467). The series is classed as functional, cell-based.
The subject of series [5] is BJ. In words: BJ-TERT fibroblast viability loss – cell-based, RAS-independent, luminescence, dose response (AID 1933). The series is classed as functional. Particulars: Homo sapiens.
The subject of series [6] is BJ. Briefly: cells. It counts as functional, cell-based. As to conditions: Homo sapiens.
Series [7] relates to BJ. In words: BJ-TERT-LT-ST fibroblast viability loss – cell-based, RAS-independent, luminescence, dose response (AID 1935).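 Note: BJ fibroblasts immortalized with TERT plus LT and ST oncogenes.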 The series is classed as functional. Particulars: Homo sapiens.
Series [8] in a line: DRD fibroblast viability loss – cell-based, non-viral oncogenic, luminescence, dose response (AID 1934). It counts as functional. As to conditions: Homo sapiens.
Series [9] addresses T1, Ubiquitin-conjugating enzyme E2 N (Homo sapiens, UniProt P61088).
T1 sequence (P61088 whole entry): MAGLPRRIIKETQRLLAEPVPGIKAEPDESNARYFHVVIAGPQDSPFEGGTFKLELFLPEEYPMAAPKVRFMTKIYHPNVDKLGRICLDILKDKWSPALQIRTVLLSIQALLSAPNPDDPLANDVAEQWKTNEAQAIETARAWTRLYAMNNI
The series is classed as functional.

For a further series, the system named is INS1. In words: INS-1E survival protection against cytokine death – cell-based, luminescence, retest, dose response (AID 449756).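 Note: cell death triggered by IL-1 beta plus TNF-alpha plus IFN-gamma mixture; protective hits raise ATP signal compared with cytokine alone wells.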 The series is classed as functional. Particulars: Rattus norvegicus.
Series [10] concerns the target T2, Replicative DNA helicase DnaB (Mycobacterium tuberculosis, UniProt P9WMR3).
T2 sequence (P9WMR3 whole entry): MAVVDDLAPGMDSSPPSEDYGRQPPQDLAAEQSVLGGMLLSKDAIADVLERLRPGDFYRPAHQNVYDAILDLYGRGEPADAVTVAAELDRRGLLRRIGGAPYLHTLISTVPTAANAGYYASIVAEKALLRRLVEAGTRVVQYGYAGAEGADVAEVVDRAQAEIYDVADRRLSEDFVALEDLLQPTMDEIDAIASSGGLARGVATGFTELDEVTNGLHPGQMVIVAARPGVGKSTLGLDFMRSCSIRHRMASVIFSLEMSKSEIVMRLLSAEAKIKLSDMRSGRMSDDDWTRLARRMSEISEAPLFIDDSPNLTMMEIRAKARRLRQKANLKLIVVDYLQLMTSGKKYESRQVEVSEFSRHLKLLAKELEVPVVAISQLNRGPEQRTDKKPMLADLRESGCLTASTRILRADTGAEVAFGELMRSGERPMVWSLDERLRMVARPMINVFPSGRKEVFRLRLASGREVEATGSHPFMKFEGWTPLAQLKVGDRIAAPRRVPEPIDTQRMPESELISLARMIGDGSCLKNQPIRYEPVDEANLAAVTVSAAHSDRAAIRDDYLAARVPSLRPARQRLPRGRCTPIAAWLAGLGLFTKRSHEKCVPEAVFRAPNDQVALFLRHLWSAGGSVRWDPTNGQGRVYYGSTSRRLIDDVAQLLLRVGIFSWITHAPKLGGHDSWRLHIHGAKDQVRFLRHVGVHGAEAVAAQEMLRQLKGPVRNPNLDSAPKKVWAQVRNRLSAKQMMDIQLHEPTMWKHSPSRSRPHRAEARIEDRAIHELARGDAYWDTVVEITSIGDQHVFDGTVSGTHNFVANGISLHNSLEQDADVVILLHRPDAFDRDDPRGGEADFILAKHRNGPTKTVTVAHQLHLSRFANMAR
Briefly: DnaB intein splicing inhibitors, dose response, biochemical, cell-free fluorescence (AID 449749). The series is classed as functional.

Another series deals with T3, Protein RecA (Mycobacterium tuberculosis, UniProt P9WHJ3).
T3 sequence (P9WHJ3 whole entry): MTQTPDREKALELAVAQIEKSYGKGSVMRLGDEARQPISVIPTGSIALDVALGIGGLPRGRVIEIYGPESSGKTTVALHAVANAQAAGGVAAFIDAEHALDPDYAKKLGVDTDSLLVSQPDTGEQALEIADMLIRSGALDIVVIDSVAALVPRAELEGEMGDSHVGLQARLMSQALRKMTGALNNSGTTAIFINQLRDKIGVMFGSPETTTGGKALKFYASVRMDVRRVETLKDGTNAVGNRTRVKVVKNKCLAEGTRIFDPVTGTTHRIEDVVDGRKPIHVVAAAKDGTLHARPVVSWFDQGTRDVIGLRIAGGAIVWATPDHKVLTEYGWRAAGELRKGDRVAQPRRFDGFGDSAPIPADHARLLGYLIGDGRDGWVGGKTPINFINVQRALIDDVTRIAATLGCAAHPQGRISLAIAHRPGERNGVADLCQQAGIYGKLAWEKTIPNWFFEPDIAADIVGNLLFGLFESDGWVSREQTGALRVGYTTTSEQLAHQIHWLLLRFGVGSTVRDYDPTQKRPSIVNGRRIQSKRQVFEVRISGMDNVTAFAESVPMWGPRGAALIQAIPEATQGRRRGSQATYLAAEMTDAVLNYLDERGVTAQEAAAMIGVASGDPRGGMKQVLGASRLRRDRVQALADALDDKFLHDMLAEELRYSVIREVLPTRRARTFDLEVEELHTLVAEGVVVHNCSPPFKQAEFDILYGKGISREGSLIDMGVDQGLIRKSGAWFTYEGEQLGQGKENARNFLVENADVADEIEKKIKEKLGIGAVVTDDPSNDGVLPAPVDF
Briefly: Fluorescence Cell-Free Homogeneous Dose Retest to Identify Inhibitors of RecA-Intein Splicing Activity. [Related pubchem assays (depositor defined):AID2097, AID2223, AID489010, AID492950]. The series is classed as functional.

The next series addresses Cytochrome P450 2D6 (Homo sapiens, UniProt P10635).
In another series the target is Cytochrome P450 2C9 (Homo sapiens, UniProt P11712).
Series [11] has as its target T4, Calpain-2 catalytic subunit (Sus scrofa, UniProt P43367).
T4 sequence (P43367 whole entry): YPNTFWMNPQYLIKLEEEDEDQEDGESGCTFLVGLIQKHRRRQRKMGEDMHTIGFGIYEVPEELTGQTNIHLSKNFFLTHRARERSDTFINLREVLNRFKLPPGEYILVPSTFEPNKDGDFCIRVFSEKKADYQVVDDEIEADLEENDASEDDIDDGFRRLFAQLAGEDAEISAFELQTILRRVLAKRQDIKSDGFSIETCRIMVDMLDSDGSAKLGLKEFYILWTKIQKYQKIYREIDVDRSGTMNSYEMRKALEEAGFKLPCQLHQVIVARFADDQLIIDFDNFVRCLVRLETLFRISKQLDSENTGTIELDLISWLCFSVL
In words: m-calpain protease blockers, concentration series – biochemical, fluorogenic peptide substrate, dose response (AID 1420). It counts as functional.

Series [12] deals with T5, Fatty acid synthase (Homo sapiens, UniProt P49327). In words: inhibition of human FAS-TE enzyme activity – biochemical, endpoint fluorescence intensity, uHTS hits, dose response (AID 624327).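 Note: fluorescence from hydrolysis of an O-methyl fluorescein acyl ester substrate by the enzyme.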 It counts as functional.
The target of series [13] is T5, Fatty acid synthase. Briefly: inhibition of human FAS-TE enzyme activity – biochemical, kinetic fluorescence intensity, dose response (AID 624326).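 Note: rate of fluorescence rise from hydrolysis of a fluorogenic O-methyl fluorescein ester substrate.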 It counts as functional.
The next series has as its system P388/ADR. In words: cells. The series is classed as functional. As to conditions: Mus musculus.
The test system of another series is SN12K1. In words: cells. The series is classed as functional. As to conditions: Homo sapiens.
A further series has as its system P388. In words: cells. It counts as functional. Particulars: Mus musculus.

Where a name gives a salt, the structure may show the parent alone. The source made the active and inactive calls.

T5 sequence (P49327 whole entry): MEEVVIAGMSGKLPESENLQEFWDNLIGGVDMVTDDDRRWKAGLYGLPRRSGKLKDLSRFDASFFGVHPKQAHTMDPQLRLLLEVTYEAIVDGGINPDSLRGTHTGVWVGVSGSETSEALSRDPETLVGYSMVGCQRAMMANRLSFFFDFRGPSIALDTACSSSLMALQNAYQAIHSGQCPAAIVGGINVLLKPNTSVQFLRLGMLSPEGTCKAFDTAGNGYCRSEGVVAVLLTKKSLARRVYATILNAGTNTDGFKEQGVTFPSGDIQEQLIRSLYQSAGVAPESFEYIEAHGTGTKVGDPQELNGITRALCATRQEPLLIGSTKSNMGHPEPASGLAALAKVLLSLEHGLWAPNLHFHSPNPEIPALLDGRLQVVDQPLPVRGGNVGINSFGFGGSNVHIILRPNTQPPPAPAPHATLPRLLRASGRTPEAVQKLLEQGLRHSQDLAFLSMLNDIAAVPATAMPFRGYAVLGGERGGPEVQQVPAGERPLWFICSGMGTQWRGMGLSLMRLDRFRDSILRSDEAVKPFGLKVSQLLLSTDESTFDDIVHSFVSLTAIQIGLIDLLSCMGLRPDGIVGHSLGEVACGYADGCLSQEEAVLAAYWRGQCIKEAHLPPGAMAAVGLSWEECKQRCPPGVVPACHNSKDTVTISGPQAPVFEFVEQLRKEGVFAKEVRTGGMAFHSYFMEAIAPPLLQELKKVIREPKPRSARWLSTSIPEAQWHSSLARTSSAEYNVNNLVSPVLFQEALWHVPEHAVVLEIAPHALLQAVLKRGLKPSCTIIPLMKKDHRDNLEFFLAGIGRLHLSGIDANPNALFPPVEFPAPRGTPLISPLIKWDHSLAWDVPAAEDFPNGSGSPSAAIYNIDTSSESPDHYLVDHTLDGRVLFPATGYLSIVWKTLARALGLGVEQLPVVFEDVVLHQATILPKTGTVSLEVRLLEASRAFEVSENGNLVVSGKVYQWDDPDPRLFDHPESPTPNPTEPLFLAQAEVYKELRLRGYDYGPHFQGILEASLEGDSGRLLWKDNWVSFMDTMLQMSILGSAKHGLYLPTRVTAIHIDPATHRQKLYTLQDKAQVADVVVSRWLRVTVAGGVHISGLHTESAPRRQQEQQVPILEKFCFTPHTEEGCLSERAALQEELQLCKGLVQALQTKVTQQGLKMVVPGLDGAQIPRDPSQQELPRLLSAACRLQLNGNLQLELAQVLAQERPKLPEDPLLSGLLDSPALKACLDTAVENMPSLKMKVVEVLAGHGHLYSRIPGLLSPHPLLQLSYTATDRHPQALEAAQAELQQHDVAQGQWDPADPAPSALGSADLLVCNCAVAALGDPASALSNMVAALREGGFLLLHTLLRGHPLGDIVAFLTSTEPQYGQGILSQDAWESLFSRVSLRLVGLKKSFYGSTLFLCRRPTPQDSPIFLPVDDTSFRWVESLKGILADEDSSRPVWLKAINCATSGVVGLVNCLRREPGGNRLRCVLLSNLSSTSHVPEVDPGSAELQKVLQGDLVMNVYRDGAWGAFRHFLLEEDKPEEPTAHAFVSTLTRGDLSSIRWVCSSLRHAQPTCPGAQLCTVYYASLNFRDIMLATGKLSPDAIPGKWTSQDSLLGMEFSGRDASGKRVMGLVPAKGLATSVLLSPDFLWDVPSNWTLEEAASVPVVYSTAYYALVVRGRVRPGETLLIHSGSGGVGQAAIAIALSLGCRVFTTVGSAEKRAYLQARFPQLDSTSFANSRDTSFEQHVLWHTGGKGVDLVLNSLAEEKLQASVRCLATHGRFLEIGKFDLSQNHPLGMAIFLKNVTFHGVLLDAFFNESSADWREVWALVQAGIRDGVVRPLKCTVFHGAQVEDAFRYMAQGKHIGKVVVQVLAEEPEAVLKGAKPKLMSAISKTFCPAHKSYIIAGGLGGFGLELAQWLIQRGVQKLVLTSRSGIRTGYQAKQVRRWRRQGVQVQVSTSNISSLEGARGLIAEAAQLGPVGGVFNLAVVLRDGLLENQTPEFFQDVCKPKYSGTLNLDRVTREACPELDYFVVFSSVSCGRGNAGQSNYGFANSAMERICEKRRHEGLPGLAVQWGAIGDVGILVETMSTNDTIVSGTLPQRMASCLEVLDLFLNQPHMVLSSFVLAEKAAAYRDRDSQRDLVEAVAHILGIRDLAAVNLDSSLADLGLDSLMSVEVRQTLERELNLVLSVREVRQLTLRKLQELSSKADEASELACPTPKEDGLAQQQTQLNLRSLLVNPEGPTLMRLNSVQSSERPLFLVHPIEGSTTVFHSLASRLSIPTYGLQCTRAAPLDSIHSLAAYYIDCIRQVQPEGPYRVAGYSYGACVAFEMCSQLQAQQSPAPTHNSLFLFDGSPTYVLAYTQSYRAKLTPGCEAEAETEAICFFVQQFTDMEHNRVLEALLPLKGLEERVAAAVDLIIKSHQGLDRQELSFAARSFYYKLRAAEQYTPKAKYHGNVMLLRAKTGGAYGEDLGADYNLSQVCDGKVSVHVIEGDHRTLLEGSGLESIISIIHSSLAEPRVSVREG
Cytochrome P450 2C9, sequence (P11712 whole entry): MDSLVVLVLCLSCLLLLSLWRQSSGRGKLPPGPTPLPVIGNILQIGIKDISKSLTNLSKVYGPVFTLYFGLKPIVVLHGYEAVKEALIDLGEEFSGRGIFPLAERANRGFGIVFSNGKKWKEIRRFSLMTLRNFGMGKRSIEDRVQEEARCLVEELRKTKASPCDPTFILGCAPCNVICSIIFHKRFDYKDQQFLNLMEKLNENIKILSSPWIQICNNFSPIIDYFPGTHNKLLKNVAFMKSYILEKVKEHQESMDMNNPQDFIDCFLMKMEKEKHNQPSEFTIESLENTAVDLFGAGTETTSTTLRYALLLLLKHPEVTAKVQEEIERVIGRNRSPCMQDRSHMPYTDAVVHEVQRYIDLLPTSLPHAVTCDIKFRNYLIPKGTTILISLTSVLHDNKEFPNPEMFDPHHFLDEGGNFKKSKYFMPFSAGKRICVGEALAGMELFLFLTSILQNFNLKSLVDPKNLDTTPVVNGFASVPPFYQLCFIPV
Cytochrome P450 2D6, sequence (P10635 whole entry): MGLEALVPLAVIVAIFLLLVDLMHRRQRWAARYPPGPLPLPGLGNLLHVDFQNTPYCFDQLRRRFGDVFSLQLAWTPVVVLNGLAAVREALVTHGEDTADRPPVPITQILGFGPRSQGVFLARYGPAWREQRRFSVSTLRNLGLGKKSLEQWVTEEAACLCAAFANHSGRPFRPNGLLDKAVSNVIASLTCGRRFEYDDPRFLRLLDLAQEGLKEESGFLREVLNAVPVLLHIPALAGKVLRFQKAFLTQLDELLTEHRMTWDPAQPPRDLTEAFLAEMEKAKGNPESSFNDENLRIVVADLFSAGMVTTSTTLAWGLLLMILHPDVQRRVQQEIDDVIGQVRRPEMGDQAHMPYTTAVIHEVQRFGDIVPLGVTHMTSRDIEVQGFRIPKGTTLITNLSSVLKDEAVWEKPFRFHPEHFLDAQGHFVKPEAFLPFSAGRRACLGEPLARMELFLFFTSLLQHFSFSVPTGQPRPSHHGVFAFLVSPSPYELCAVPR

For `CC(=O)Oc1ccc2ccccc2c1C(NC(=O)Cc1ccccc1)c1ccccc1Cl` (stereo not drawn), the values for the EC50 in [1] and in [2] were 22.4 µM (active) and 27.7 µM (active), respectively.

For `COc1ccc(/C=C2\N=C(SC)NC2=O)cc1`, the figures for the EC50 in series [3] and in series [4] were > 150 µM (inactive) and > 38 µM (not active), respectively.

Turning to `CN(C)CCCn1cnc2c(c1=N)C(c1ccccc1)c1ccc3ccccc3c1O2` (stereo not drawn), the EC50 in the series with BJ [5] is 5.45 µM (inconclusive); in the series with BJ [6] it was 8.21 µM (active); in the series with BJ [7] it was 4.25 µM (active); in series [8] it was 5.25 µM (active). In series [9], the IC50 is > 20 µM (inactive). In addition, in the series on INS1, the half-maximal activity concentration (AC50) is 6.49 µM (active).

As to `CCOC(=O)c1oc2nc(CC(C)C)c3c(c2c1N)CCC3`, the values for the AC50 (in [10]; at Cytochrome P450 2D6; on Cytochrome P450 2C9) were 91.7 µM (active), 25.1 µM (inconclusive) and “inconclusive”, respectively. Besides, the EC50 at Protein RecA was > 380 µM (inactive).

As to `COc1cc2ccccc2cc1C(=O)N(CCN(C)C)c1nc2ccc(Br)cc2s1`, the values for the EC50 in series [3] and in [4] were 101 µM (active) and > 38 µM (not active), respectively.

For the compound `CCCCn1cc[n+](C2=C([N-]S(=O)(=O)c3ccccc3)C(=O)c3ccccc3C2=O)c1`, the results for the half-maximal effective concentration (EC50) in series [1] and in series [2] were 5.34 µM (active) and 5.73 µM (active), respectively.

Regarding `O=C(N1CCN(c2ccccn2)CC1)N1c2ccccc2Sc2ccccc21`, the 50% effective concentration (EC50) in the series on BJ [5] is 0.62 µM (active); with BJ [6] it was 53.6 µM (inconclusive); with BJ [7], 0.979 µM (inconclusive); in [8] it was 0.523 µM (active). Further, the IC50 in [11] is 4.55 µM (not active).

As for `CC(C)(C)c1ccc(C(=O)NCCC(=O)Nc2cc(Cl)ccc2N2CCOCC2)cc1`, the IC50 was 9.59 µM (active) at Fatty acid synthase [12] and 4.54 µM (active) on Fatty acid synthase [13].

On to `N#Cc1cc2sc3nnc(-c4ccncc4)n3c2cc1C#N`, for which the IC50 was 3.82 µM (active) at Fatty acid synthase [12] and 4.69 µM (active) at Fatty acid synthase [13].

Regarding `COC(=O)C1CCN(Cc2c(C(=O)N3C[C@@H](C)O[C@@H](C)C3)nc3ccc(Cl)cn23)CC1`, the EC50 in [3] is > 150 µM (inactive); in series [4], > 38 µM (not active).

With `Oc1c(Cl)cc(CN2CCCCC2)c2cccnc12`, the EC50 in the series with BJ [5] is 1.39 µM (active); in the series on BJ [6], 25.9 µM (inconclusive); with BJ [7] it was 76.1 µM (inconclusive); in series [8], 53.1 µM (inconclusive).

As for `COc1cc(/C=C/c2ccc(OC)c(OC)c2)oc(=O)c1`, the GI50 is > 183 µM (inactive) in the series on P388/ADR, > 183 µM (inactive) in the series with SN12K1 and 96.4 µM (inactive) in the series with P388.

In the case of `O=NN(CCCl)C(=O)N[C@H]1CC[C@@H](O)CC1`, the GI50 was 3.41 µM (inactive) in the series with P388/ADR, 28.2 µM (inactive) in the series on SN12K1 and 3.76 µM (inactive) with P388.

Take `CC(C)NC(=O)OCc1c(CO)c2c(n1C)-c1ccccc1CC2`: the figures for the GI50 in the series with P388/ADR, with SN12K1 and with P388 were 6.9 µM (inactive), 18.1 µM (inactive) and 7.59 µM (inactive), respectively.

Take `Cc1ccc(C2COc3cc(O)c(O)cc3C2)cc1` (stereo not drawn): the figures for the GI50 in the series on P388/ADR, in the series on SN12K1 and in the series on P388 were 1.79 µM (inactive), 13.2 µM (inactive) and 1.75 µM (inactive), respectively.

Regarding `CCN1CCCC(NCc2c3ccccc3c(CNC3CCCN(CC)C3)c3ccccc23)C1` (stereo not drawn), the GI50 was 15.7 µM (inactive) in the series with P388/ADR, 8.32 µM (inactive) in the series on SN12K1 and 2.64 µM (inactive) in the series with P388.

Consider `CN1CCN(c2ccc([N+](=O)[O-])cc2/C=N/NC(=O)c2ccc(F)cc2)CC1`, for which the values for the IC50 at Fatty acid synthase [12] and on Fatty acid synthase [13] were 11.2 µM (active) and 16 µM (active), respectively.

`O=c1[nH]cc(/N=C/c2cc([N+](=O)[O-])ccc2O)c(=O)[nH]1`: the EC50 in series [3] is > 150 µM (inactive); in [4], > 38 µM (not active); on Protein RecA, 5.48 µM (active). Besides, the AC50 in series [10] was 5.98 µM (active).

Consider `CCCCS(=N)(=O)CC[C@H](N)C(=O)O` (stereo partly drawn) [BUTHIONINE SULFOXIME], for which the GI50 is > 5000 µM (inactive) in the series on P388/ADR, 3720 µM (inactive) in the series on SN12K1 and 2250 µM (inactive) with P388.

As for `CCCCCCCCCCCCCCCCSCC(COC)COP(=O)([O-])OCC[N+](C)(C)C` (stereo not drawn) [ILMOFOSINE], the GI50 is 4.01 µM (inactive) in the series on P388/ADR, 11.7 µM (inactive) in the series with SN12K1 and 2.36 µM (inactive) in the series on P388.

For `N[C@@H](Cc1ccc(N(CCCl)CCCl)cc1)C(=O)O` [MELPHALAN HYDROCHLORIDE], the GI50 in the series with P388/ADR is 5.71 µM (inactive); in the series with SN12K1 it was 26.5 µM (inactive); in the series with P388 it was 2.39 µM (inactive).

What is called EC50 is the concentration giving half of the maximal effect. A word on the IC50: it is the concentration that gives 50% inhibition. As a reminder, the AC50 is the concentration giving half of the maximal activity seen. A word on the GI50: it is the concentration giving 50% growth inhibition.
